# Measurements as given in US6818391B2, “Glutamate transporters” (The Regents of the University of California, priority 2000, dated 2004).
# “Also recorded” adds a separate entry of the source.
# Assays:
# BNPI (VGLUT1) = target: T1, BNPI (VGLUT1) (Rattus norvegicus, UniProt Q62634); test: 3H-glutamate uptake by membranes from PC12 cells expressing BNPI; format: biochemical; conditions: for inhibition of 3H-glutamate uptake by membranes expressing BNPI: uptake at 5 min; for effect on 3H-glutamate uptake by BNPI membranes: membranes preloaded with 4 mM KCl
# T1 construct: expressed in transfected cells; light membranes prepared from them
# T1 sequence (Q62634 1-560): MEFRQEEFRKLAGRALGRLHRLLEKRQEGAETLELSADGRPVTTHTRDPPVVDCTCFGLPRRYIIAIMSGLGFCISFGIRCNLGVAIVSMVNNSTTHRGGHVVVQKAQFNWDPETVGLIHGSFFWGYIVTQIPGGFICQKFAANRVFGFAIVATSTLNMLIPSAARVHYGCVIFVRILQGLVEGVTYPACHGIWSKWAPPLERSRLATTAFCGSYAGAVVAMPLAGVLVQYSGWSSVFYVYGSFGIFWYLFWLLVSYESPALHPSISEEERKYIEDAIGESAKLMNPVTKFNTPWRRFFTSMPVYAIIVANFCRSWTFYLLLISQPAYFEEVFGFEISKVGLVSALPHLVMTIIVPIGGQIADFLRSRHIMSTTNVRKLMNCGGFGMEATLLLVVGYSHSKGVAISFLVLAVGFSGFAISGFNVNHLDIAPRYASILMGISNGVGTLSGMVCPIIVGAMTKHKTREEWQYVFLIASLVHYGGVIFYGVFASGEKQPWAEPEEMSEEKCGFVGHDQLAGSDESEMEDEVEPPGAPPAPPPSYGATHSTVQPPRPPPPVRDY
# Description: Rather, the type I transporter NaPi-1 transports organic anions, including phenol red and penicillin G, with substantially higher apparent affinity than Pi (Busch et al. (1996) Proc. Natl. Acad. Sci., USA, 93: 5347). Human genetic studies have shown that mutations in another protein closely related to BNPI and NaPi-1 account for disorders of sialic acid storage (Verheijen et al. (1999) Nature Genet. 23: 462). In these conditions, sialic acid accumulates in lysosomes because of a defect in proton-driven export (Renlund et al. (1986) Science 232: 759; Mancini et al. (1989) J. Biol. Chem. 264: 15247; Tietze et al. (1989) J. Biol. Chem. 264: 15316; Mancini et al. (1992) Proc. Natl. Acad. Sci., USA, 89: 6609). […] To determine whether BNPI mediates the transport of glutamate into synaptic vesicles, we transfected the rat BNPI cDNA into rat pheochromocytoma PC12 cells, which lack detectable endogenous BNPI protein. The rat BNPI cDNA was stably expressed in PC12 cells, and immunofluorescence for BNPI was used to identify the most highly expressing cell clones. Membranes were prepared by homogenizing the washed cells in SH buffer [0.32 M sucrose and 10 mM Hepes-KOH (pH 7.4)] containing protease inhibitors and by pelleting the nuclei at 1000 g for 5 min and the heavier membranes at 27,000 g for 35 min. The supernatant containing lighter membranes was then pelleted at 210,000 g for 1 hour and resuspended in SH buffer with protease inhibitors at a final concentration of ˜10 μg protein/μl.
# We then prepared a population of light membranes, including synaptic-like microvesicles, from the transfected and untransfected cells (McIntire et al. (1997) Nature 389: 870) and tested their ability to accumulate 3H-glutamate in the presence of 4 mM chloride and ATP, conditions that optimize glutamate accumulation by native synaptic vesicles (Maycox et al. (1988) J. Biol. Chem., 263: 15423; Carlson et al. […] J. Biol. Chem. 264: 7369). To initiate the transport reaction, we added 10 μl of membranes to 190 μl of SH buffer containing 4 mM KCl, 4 mM MgSO4, 4 mM ATP, and 50 μM 3H-glutamate, with other additions noted in the text and figure legends. The reaction mixture was incubated at 29° C. for varying times, and the uptake was terminated by rapid filtration, followed by immediate washes with 6 ml of cold 0.155 M potassium tartrate and 10 mM Hepes (pH 7.4). Background uptake was determined using membranes prepared from untransfected cells that were incubated for the same amount of time at the same temperature. Transport measurements were performed in duplicate with at least two different preparations of membranes. The Km was calculated by averaging the results of two separate determinations.
# DNPI/VGLUT2 = target: T2, DNPI/VGLUT2 (Rattus norvegicus, UniProt Q9JI12); test: 3H-L-glutamate uptake by membranes from PC12 cells expressing DNPI/VGLUT2; format: biochemical; conditions: for inhibition of DNPI-mediated 3H-L-glutamate uptake: uptake at 5 minutes; for effect on 3H-glutamate uptake by DNPI membranes: preloaded 4 mM KCl, 5 minutes
# T2 construct: To reconstruct the full open reading frame, the missing segment was amplified from rat brain cDNA by PCR; expressed in transfected cells; light membranes prepared from them
# T2 sequence (Q9JI12 1-582): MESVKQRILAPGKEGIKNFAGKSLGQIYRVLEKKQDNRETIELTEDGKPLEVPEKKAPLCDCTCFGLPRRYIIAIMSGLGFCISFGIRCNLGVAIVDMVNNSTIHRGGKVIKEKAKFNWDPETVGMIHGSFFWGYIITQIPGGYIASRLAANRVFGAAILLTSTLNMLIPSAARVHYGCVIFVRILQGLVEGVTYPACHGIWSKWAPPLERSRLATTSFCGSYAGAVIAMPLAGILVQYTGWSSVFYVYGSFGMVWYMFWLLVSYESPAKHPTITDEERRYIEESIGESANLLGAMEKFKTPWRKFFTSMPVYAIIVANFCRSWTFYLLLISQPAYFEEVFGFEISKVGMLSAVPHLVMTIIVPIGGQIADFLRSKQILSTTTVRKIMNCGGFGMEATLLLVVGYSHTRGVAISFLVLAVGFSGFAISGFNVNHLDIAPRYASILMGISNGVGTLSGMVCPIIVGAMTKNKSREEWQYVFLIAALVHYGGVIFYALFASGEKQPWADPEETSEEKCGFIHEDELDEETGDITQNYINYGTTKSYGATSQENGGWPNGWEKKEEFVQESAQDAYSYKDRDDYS
# Method: PC12 cells were grown in Dulbecco's modified Eagle's medium containing 10% equine serum, 5% calf serum and transfected by electroporation with the rat DNPI/VGLUT2 cDNA subcloned in the pcDNA3 vector containing an […] (Krantz et al. (2000) J. Cell Biol. 149). Stable transformants were selected for resistance to the neomycin analog G418 (500 μg/ml) and screened by immunofluorescence with the DNPI antibody, resulting in the identification of two independent clones with more than 80% of the cells expressing DNPI.
# For membrane preparation, untransfected and DNPI-expressing PC12 cells were grown on 15 cm plates, washed with calcium- and magnesium-free PBS, collected in 0.32 M sucrose/10 mM HEPES-KOH, pH 7.4 (SH buffer) containing protease inhibitors (2 μg/ml leupeptin, 1 μg/ml pepstatin, 1 μg/ml E64, 0.2 mM diisopropylfluorphosphate, 2 μg/ml aprotinin, and 1.25 mM MgEGTA), homogenized using a ball bearing device and the homogenate sedimented at 1000 g for 5 min to remove nuclei and debris. The supernatant was then sedimented at 27,000 g for 35 min to remove heavier membranes. The remaining light membranes including small synaptic-like microvesicles were then sedimented at 210,000 g for 1 hour. The pellet was resuspended in SH buffer with protease inhibitors at ˜10 mg protein/ml.
# To initiate the transport reaction, 20 μl membranes (˜200 μg protein) were added to 180 μl SH buffer containing 4 mM KCl, 4 mM MgSO4, […], and 100 μM ^3H-L-glutamate, with other additions noted in the text and figure legends. The reaction mixture was incubated at 29° C. for varying intervals, uptake was terminated by rapid filtration through Supor-200 membranes (Gelman) and the filters were washed rapidly four times with 1.5 ml cold 0.155 M potassium tartrate/10 mm HEPES-KOH, pH 7.4 before measuring the bound radioactivity by scintillation counting in 3 ml Cytoscint (ICN). Uptake specifically mediated by DNPI/VGLUT2 was determined by subtracting the background uptake of untransfected cell membranes from the uptake by transfected cell membranes. To examine the chloride dependence of transport, varying proportions of 0.14 M K gluconate and 0.14 M KCl were mixed in the standard reaction buffer (without sucrose) to vary the chloride concentration and maintain constant osmolarity. The ionophores nigericin and valinomycin used in FIG. 13E were prepared as 200× stock solutions in ethanol. The final ethanol concentration in the reaction mixture was 1%.
# synaptic vesicles = conditions: cited from earlier work
# [1] = tested on: untransfected PC12 cell membranes; test: background 3H-glutamate uptake by membranes from untransfected PC12 cells; format: biochemical, rat; conditions: uptake at 5 min
# Method: To initiate the transport reaction, we added 10 μl of membranes to 190 μl of SH buffer containing 4 mM KCl, 4 mM MgSO4, 4 mM ATP, and 50 μM 3H-glutamate, with other additions noted in the text and figure legends. […] Background uptake was determined using membranes prepared from untransfected cells that were incubated for the same amount of time at the same temperature. Transport measurements were performed in duplicate with at least two different preparations of membranes. The Km was calculated by averaging the results of two separate determinations.
structure (smiles),measurement,setting,value
N[C@H](CCC(=O)O)C(=O)O [D-Glutamate],inhibition of 3H-glutamate uptake by membranes expressing BNPI,BNPI (VGLUT1); 10 mM,partially inhibits
same,inhibition of DNPI-mediated 3H-L-glutamate uptake,DNPI/VGLUT2; 10 mM,significantly inhibit
same,inhibition of DNPI-mediated 3H-L-glutamate uptake,"DNPI/VGLUT2; 10 mM, listed as D-glutamate",inhibit uptake
N[C@H](CC(=O)O)C(=O)O [D-aspartate],inhibition of DNPI-mediated 3H-L-glutamate uptake,DNPI/VGLUT2; 10 mM,not
"O=S(=O)(O)c1cc(N=C=S)ccc1C=Cc1ccc(N=C=S)cc1S(=O)(=O)O [DIDS, 4,4′-diisothiocyanatostilbene-2,2′-disulfonic acid]",inhibition of 3H-glutamate uptake by membranes expressing BNPI,BNPI (VGLUT1); 1 μM DIDS,blocks transport only partly
same,inhibition at 1 µM,"BNPI (VGLUT1); 1 μM DIDS, read-out: inhibition of 3H-glutamate transport mediated by BNPI",~60%
same,IC50,"synaptic vesicles; read-out: median inhibitory concentration, glutamate transport by synaptic vesicles",~700 nM
Cc1cc(-c2ccc(/N=N/c3ccc4c(S(=O)(=O)O)cc(S(=O)(=O)O)c(N)c4c3O)c(C)c2)ccc1/N=N/c1ccc2c(S(=O)(=O)O)cc(S(=O)(=O)O)c(N)c2c1O [Evans blue],inhibition of 3H-glutamate uptake by membranes expressing BNPI,BNPI (VGLUT1); Evans blue 5 μM (low micromolar),inhibited the transport; also recorded: inhibits BNPI activity dramatically
same,effect on background glutamate uptake by untransfected cell membranes,[1],had little effect
same,inhibition of DNPI-mediated 3H-L-glutamate uptake,DNPI/VGLUT2; Evans Blue 4.5 μM,inhibit uptake; also recorded: significantly inhibit
same,inhibition of glutamate transport into synaptic vesicles,synaptic vesicles; low micromolar concentrations,inhibited the transport
"NCCCC(=O)O [GABA, γ-aminobutyric acid]",inhibition of DNPI-mediated 3H-L-glutamate uptake,DNPI/VGLUT2; 10 mM,not
NC(=O)CC[C@H](N)C(=O)O [L-glutamine],inhibition of 3H-glutamate uptake by membranes expressing BNPI,BNPI (VGLUT1); 10 mM,had no effect and not
"O=P(O)(O)O [Pi, inorganic phosphate]",inhibition of 3H-glutamate uptake by membranes expressing BNPI,BNPI (VGLUT1); 10 mM,did not inhibit; also recorded: has little effect
same,inhibition of 3H-L-glutamate uptake by DNPI,"DNPI/VGLUT2; Pi, data not shown",does not
NCC(=O)O [glycine],inhibition of DNPI-mediated 3H-L-glutamate uptake,DNPI/VGLUT2; 10 mM,not
CO[C@@H]1C[C@@H](C[C@H]2CC[C@H](C)[C@H]([C@@H](C)C(=O)O)O2)O[C@]2(O[C@](C)([C@H]3CC[C@@](C)([C@@H]4O[C@@H]([C@H]5O[C@@](O)(CO)[C@H](C)C[C@@H]5C)C[C@@H]4C)O3)C[C@H]2C)[C@@H]1C [nigericin],effect on 3H-glutamate uptake by BNPI membranes,BNPI (VGLUT1); nigericin 5 μM,increases the uptake
same,effect on 3H-glutamate uptake by DNPI membranes,DNPI/VGLUT2; 5 μM nigericin,did not significantly reduce transport
CC(C)[C@@H]1NC(=O)[C@H](C)OC(=O)[C@@H](C(C)C)NC(=O)[C@@H](C(C)C)OC(=O)[C@H](C(C)C)NC(=O)[C@H](C)OC(=O)[C@@H](C(C)C)NC(=O)[C@@H](C(C)C)OC(=O)[C@H](C(C)C)NC(=O)[C@H](C)OC(=O)[C@@H](C(C)C)NC(=O)[C@@H](C(C)C)OC1=O [valinomycin],effect on 3H-glutamate uptake by BNPI membranes,BNPI (VGLUT1); valinomycin 20 μM,substantially reduces glutamate uptake
same,effect on 3H-glutamate uptake by DNPI membranes,DNPI/VGLUT2; 20 μM valinomycin,inhibits
